According to patent US9271971B2, “Pyrido[3,4-B]indoles and methods of use” (Medivation Technologies, Inc., priority 2009, dated 2016):

Legend:
[1] = molecular target: human recombinant dopamine D2L receptor (Homo sapiens, UniProt P14416); experiment: Dopamine D2L radioligand binding assay; conditions: [3H]Spiperone specific binding; for inhibition at 1 µM: read-out: Percent Inhibition of ligand binding, Dopamine (1 μM ligand conc.) D2L
Experimental: To evaluate in radioligand binding assays the activity of compounds of the invention, human recombinant dopamine D2L receptor expressed in Chinese hamster ovary (CHO) cells [Grandy, D. K. et al. Proc. Natl. Acad. Sci. USA. (1989), 86:9762; Hayes, G. et al., Mol. Endocrinol. (1992), 6:920] in a modified Tris-HCl buffer (50 mM Tris-HCl, pH 7.4, 1.4 mM Ascorbic Acid, 0.001% BSA, 150 mM NaCl) was used. Compounds of the invention were incubated with 0.16 nM [^3H]Spiperone for 120 min. at 25° C. Non-specific binding was estimated in the presence of 10 μM Haloperidol. Receptor proteins were filtered and washed, the filters were then counted to determine [^3H]Spiperone specifically bound. Compounds were screened at 1 μM or lower, using 1% DMSO as vehicle. Biochemical assay results are presented as the percent inhibition of specific binding in Table 3.

[2] = molecular target: T1, human recombinant serotonin (5-Hydroxytryptamine) 5-HT2A receptor (Homo sapiens, UniProt P28223); experiment: Serotonin 5-HT2A radioligand binding assay; conditions: [3H]Ketanserin specific binding; for inhibition at 1 µM: read-out: Percent Inhibition of ligand binding, Serotonin (1 μM ligand concentration) 5-HT2A
T1 construct: expressed in transfected cells; host or cells: Chinese hamster ovary (CHO-K1) cells
Experimental: To evaluate in radioligand binding assays the activity of compounds of the invention, human recombinant serotonin (5-Hydroxytryptamine) 5-HT2A receptor expressed in Chinese hamster ovary (CHO-K1) cells [Bonhaus, D. W. et al., Br. J. Pharmacol. (1995), 115:622; Saucier, C. et al., J. Neurochem. (1997), 68:1998] in a 50 mM Tris-HCl buffer, pH 7.4, was used. Compounds of the invention were incubated with 0.5 nM [^3H]Ketanserin for 60 min. at 25° C. Non-specific binding was estimated in the presence of 1 μM Mianserin. Receptor proteins were filtered and washed, the filters were then counted to determine [^3H]Ketanserin specifically bound. Compounds were screened at 1 μM or lower, using 1% DMSO as vehicle. Biochemical assay results are presented as the percent inhibition of specific binding in Table 4.

[3] = molecular target: T2, human recombinant adrenergic α2B receptor (Homo sapiens, UniProt P18089); experiment: Adrenergic α2B radioligand binding assay; conditions: [3H]Rauwolscine specific binding; for inhibition at 1 µM: read-out: Percent Inhibition of ligand binding, Adrenergic (1 μM ligand conc.) α2B; for inhibition at 0.1 µM: read-out: Percent Inhibition of ligand binding, Adrenergic (0.1 μM ligand conc.) α2B
T2 construct: expressed in transfected cells; host or cells: Chinese hamster ovary (CHO-K1) cells
T2 sequence (P18089 1-450): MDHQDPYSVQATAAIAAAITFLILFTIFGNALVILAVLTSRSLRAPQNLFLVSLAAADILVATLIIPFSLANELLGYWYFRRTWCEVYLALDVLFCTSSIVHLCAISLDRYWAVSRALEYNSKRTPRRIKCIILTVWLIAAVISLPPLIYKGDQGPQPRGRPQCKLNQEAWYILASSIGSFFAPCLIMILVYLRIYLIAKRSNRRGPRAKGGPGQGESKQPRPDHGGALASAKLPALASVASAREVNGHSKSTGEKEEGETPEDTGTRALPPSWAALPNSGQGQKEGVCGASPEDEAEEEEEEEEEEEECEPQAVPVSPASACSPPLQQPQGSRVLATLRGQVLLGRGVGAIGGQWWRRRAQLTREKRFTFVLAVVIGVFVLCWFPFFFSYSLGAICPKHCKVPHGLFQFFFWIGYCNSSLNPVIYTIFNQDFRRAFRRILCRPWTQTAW
Experimental: To evaluate in radioligand binding assays the activity of compounds of the invention, human recombinant adrenergic α2B receptor expressed in Chinese hamster ovary (CHO-K1) cells [Uhlen, S et al., Eur J Pharmacol. (1998), 343(1):93] in a modified Tris-HCl buffer (50 mM Tris-HCl, pH 7.4, 12.5 mM MgCl2, 1 mM EDTA, 0.2% BSA) was used. Compounds of the invention were incubated with 2.5 nM [^3H]Rauwolscine for 60 min. at 25° C. Non-specific binding was estimated in the presence of 10 μM Prozosin. Receptor proteins were filtered and washed, the filters were then counted to determine [^3H]Rauwolscine specifically bound. Compounds were screened at 1 μM or lower, using 1% DMSO as vehicle. Compounds of the invention were tested in this biochemical assay. Biochemical assay results for representative compounds were presented as the percent inhibition of specific binding in Table 3.

[4] = molecular target: T3, human recombinant adrenergic α1D receptor (Homo sapiens, UniProt P25100); experiment: Adrenergic α1D radioligand binding assay; conditions: [3H]Prozosin specific binding; for inhibition at 1 µM: read-out: Percent Inhibition of ligand binding, Adrenergic (1 μM ligand conc.) α1D; for inhibition at 0.1 µM: read-out: Percent Inhibition of ligand binding, Adrenergic (0.1 μM ligand conc.) α1D
T3 construct: expressed in transfected cells; host or cells: human embryonic kidney (HEK-293) cells
T3 sequence (P25100 1-572): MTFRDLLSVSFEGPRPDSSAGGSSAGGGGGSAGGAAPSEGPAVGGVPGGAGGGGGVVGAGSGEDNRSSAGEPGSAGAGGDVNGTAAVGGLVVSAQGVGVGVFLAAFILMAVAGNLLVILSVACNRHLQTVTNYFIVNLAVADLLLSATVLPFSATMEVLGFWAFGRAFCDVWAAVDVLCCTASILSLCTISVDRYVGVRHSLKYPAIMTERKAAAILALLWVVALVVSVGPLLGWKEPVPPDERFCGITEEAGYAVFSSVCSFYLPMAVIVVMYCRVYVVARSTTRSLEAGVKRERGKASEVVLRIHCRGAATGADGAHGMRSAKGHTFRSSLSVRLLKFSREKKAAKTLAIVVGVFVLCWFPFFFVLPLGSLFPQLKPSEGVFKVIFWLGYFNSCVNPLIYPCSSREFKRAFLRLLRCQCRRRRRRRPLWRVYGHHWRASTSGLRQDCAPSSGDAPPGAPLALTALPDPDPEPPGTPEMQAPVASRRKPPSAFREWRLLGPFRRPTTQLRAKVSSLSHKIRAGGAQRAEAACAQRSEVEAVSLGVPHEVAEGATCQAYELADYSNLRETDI
Experimental: To evaluate in radioligand binding assays the activity of compounds of the invention, human recombinant adrenergic α1D receptor expressed in human embryonic kidney (HEK-293) cells [Kenny, B. A. et al. Br. J. Pharmacol. (1995), 115(6):981] in a 50 mM Tris-HCl buffer, pH 7.4, was used. Compounds of invention were incubated with 0.6 nM [^3H]Prozosin for 60 min. at 25° C. Non-specific binding was estimated in the presence of 10 μM phentolamine. Receptor proteins were filtered and washed, the filters were then counted to determine [^3H]Prozosin specifically bound. Compounds were screened at 1 μM or lower, using 1% DMSO as vehicle. Compounds of the invention were tested in this biochemical assay. Biochemical assay results for representative compounds were presented as the percent inhibition of specific binding in Table 3.

Sequence of human recombinant dopamine D2L receptor (P14416 whole entry): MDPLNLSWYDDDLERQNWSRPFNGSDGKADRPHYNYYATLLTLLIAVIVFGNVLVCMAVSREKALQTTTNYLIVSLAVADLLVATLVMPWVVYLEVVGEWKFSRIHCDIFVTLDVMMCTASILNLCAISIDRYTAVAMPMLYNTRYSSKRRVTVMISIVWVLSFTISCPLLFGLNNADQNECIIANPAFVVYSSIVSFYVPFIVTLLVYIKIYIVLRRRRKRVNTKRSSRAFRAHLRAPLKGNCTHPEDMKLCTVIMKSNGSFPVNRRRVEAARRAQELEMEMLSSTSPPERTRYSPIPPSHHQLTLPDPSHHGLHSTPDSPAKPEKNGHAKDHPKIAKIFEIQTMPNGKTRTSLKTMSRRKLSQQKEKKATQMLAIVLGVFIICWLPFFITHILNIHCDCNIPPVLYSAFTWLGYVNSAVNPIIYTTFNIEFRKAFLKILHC
T1 sequence (P28223 whole entry): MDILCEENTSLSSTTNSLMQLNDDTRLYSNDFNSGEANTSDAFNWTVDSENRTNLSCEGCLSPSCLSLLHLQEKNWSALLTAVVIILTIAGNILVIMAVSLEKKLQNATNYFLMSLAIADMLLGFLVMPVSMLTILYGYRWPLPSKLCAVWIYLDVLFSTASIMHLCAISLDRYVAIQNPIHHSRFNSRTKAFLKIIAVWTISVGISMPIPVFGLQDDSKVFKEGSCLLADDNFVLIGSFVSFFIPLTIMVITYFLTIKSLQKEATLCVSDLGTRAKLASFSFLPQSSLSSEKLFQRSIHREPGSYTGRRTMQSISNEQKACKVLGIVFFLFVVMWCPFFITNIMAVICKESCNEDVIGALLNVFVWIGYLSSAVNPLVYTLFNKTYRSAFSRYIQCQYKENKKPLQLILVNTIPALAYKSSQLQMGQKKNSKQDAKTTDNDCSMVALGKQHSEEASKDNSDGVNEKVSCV

| SMILES | inhibition at 1 µM [1] | inhibition at 1 µM [2] | inhibition at 1 µM ([3]; 1 μM) | inhibition at 1 µM [4] | Percent Inhibition of ligand binding, Dopamine (1 μM ligand conc.) D2L [1] | inhibition at 0.1 µM [3] | inhibition at 0.1 µM [4] | Percent Inhibition of ligand binding, Serotonin (1 μM ligand concentration) 5-HT2A [2] | Percent Inhibition of ligand binding, Adrenergic (1 μM ligand conc.) α2B ([3]; 1 μM) | Percent Inhibition of ligand binding, Adrenergic (1 μM ligand conc.) α1D [4] |
| --- | --- | --- | --- | --- | --- | --- | --- | --- | --- | --- |
| COc1ccc(C(O)Cn2c3c(c4cc(C)ccc42)C2CCN(C3)C2)cc1F (stereo not drawn) [Compound 6] | -1% | 45% | 73% | 28% |  |  |  |  |  |  |
| Cc1ccc2c(c1)c1c(n2CCc2ccc(C)nc2)CN2CCC1C2 (stereo not drawn) [Compound 12] | 0% | 17% | 16% | 25% |  |  |  |  |  |  |
| Cc1ccc2c(c1)c1c(n2CC(=O)c2ccc(Cl)cc2)CN2CCC1C2 (stereo not drawn) [Compound 29] | 0% | 56% | 58% | 42% |  |  |  |  |  |  |
| COc1ccc(C(O)Cn2c3c(c4cc(C)ccc42)C2CCN(C3)C2)cc1OC (stereo not drawn) [Compound 8] | -16% | 25% | 34% | 20% |  |  |  |  |  |  |
| Cc1ccc2c(c1)c1c(n2CCc2ccncc2)CN2CCC1C2 (stereo not drawn) [Compound 30] | 10% | 71% | 76% | 40% |  |  |  |  |  |  |
| C/C(=C\n1c2c(c3cc(C)ccc31)C1CCN(C2)C1)c1ccc(F)cc1 (stereo not drawn) [Compound 22] | 21% | 97% | 95% | 81% | 25% |  |  |  |  |  |
| COc1ccc(/C(C)=C/n2c3c(c4cc(C)ccc42)C2CCN(C3)C2)cc1F (stereo not drawn) [Compound 41] | 17% | 92% |  |  |  |  |  |  |  |  |
| Cc1ccc2c(c1)c1c(n2CC(=O)N2CCC(C)CC2)CN2CCC1C2 (stereo not drawn) [Compound 25] | 9% | 2% | -17% | -1% |  |  |  |  |  |  |
| Cc1ccc2c(c1)c1c(n2C(=O)Cc2ccc(Cl)cc2)CN2CCC1C2 (stereo not drawn) [Compound 36] | 3% | 89% |  |  |  | 13% | -2% |  |  |  |
| Cc1ccc2c(c1)c1c(n2CC(C)(O)c2ccc(F)cc2)CN2CCC1C2 (stereo not drawn) [Compound 2] | 7% | 76% | 84% | 15% |  |  |  |  |  |  |
| Cc1ccc2c(c1)c1c(n2CC(=O)N(C)C)CN2CCC1C2 (stereo not drawn) [Compound 27] | 11% | -4% | -15% | 9% |  |  |  |  |  |  |
| Cc1ccc(C(O)Cn2c3c(c4cc(C)ccc42)C2CCN(C3)C2)cc1 (stereo not drawn) [Compound 5] | 6% | 81% | 78% | 34% |  |  |  |  |  |  |
| Cc1ccc2c(c1)c1c(n2CC(=O)c2ccc(F)cc2)CN2CCC1C2 (stereo not drawn) [Compound 28] | 1% | 61% | 45% | 49% |  |  |  |  |  |  |
| COc1ccc(/C(C)=C/n2c3c(c4cc(C)ccc42)C2CCN(C3)C2)cc1 (stereo not drawn) [Compound 45] | -2% | 98% |  |  |  | 15% | -1% |  |  |  |
| C/C(=C\n1c2c(c3cc(C)ccc31)C1CCN(C2)C1)c1ccc(Cl)cc1Cl (stereo not drawn) [Compound 34] |  |  |  |  | 0% |  |  | 94% | 55% | 11% |
| Cc1ccc2c(c1)c1c(n2CC(=O)N2CCCCC2)CN2CCC1C2 (stereo not drawn) [Compound 7] | -3% | -3% | 0% | -7% |  |  |  |  |  |  |
| Cc1ccc2c(c1)c1c(n2CCc2cncc(F)c2)CN2CCC1C2 (stereo not drawn) [Compound 9] | 9% | -6% | 45% | 24% |  |  |  |  |  |  |
| C/C(=C/n1c2c(c3cc(C)ccc31)C1CCN(C2)C1)c1ccccc1F (stereo not drawn) [Compound 37] | 5% | 96% |  |  |  |  |  |  |  |  |
| C/C(=C\n1c2c(c3cc(C)ccc31)C1CCN(C2)C1)c1ccncc1 (stereo not drawn) [Compound 44] | 9% | 67% |  |  |  | 9% | 8% |  |  |  |
| C/C(=C\n1c2c(c3cc(C)ccc31)C1CCN(C2)C1)c1ccc(Cl)cc1Cl (stereo not drawn) [Compound 33] |  | 78% | 73% |  | −6% | 9% | -6% |  |  | 28% |
| Cc1ccc2c(c1)c1c(n2CCc2nc(-c3ccccc3)cs2)CN2CCC1C2 (stereo not drawn) [Compound 19] | -2% | 0% | 61% | 34% |  |  |  |  |  |  |
| Cc1ccc2c(c1)c1c(n2C#Cc2ccc(Cl)cc2)CN2CCC1C2 (stereo not drawn) [Compound 35] | -6% | 87% |  |  |  |  |  |  |  |  |
| Cc1ccc2c(c1)c1c(n2C(=O)Cc2ccc(F)cc2)CN2CCC1C2 (stereo not drawn) [Compound 43] | 11% | 48% |  |  |  |  |  |  |  |  |
| C/C(=C\n1c2c(c3cc(C)ccc31)C1CCN(C2)C1)c1ccc(Cl)c(Cl)c1 (stereo not drawn) [Compound 40] | 6% | 94% |  |  |  |  |  |  |  |  |
| C/C(=C\n1c2c(c3cc(C)ccc31)C1CCN(C2)C1)c1ccc(F)c(F)c1 (stereo not drawn) [Compound 39] | 0% | 94% |  |  |  |  |  |  |  |  |
| C/C(=C\n1c2c(c3cc(C)ccc31)C1CCN(C2)C1)c1cccnc1 (stereo not drawn) [Compound 42] | -10% | 47% |  |  |  |  |  |  |  |  |
